Test results: PubChem BioAssay AID270 (DTP/NCI, 2004)
Values joined by “and” are separate entries in the source; they are usually repeats but may differ in a detail not shown here. Equal entries are not always repeated. Inconclusive results are not listed.

Tested on: BDF1 mice, s.c. Lewis lung carcinoma, T/C %
Experiment: NCI In Vivo Anticancer Drug Screen. Data for tumor model Lewis Lung Carcinoma (subcutaneous) in B6D2F1 (BDF1) mice
Method in brief: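 Transplanted tumors grown in mice; compound vs vehicle dosing; endpoint survival or tumor size; ratio T/C.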

Cc1ccc(C(=O)/C=C/c2ccccc2O)cc1
T/C (endpoint: median survival time, dose: 37.5 mg/kg/injection, schedule: Q01DX009 (ip), vehicle: Klucel (hydroxypropylcellulose) (HPC), higher = longer survival): 105 % of control | T/C (endpoint: median survival time, dose: 75.0 mg/kg/injection, schedule: Q01DX009 (ip), vehicle: Klucel (hydroxypropylcellulose) (HPC), higher = longer survival): 111 % of control | T/C (endpoint: median survival time, dose: 150.0 mg/kg/injection, schedule: Q01DX009 (ip), vehicle: Klucel (hydroxypropylcellulose) (HPC), higher = longer survival): 108 % of control | T/C (endpoint: median survival time, dose: 300.0 mg/kg/injection, schedule: Q01DX009 (ip), vehicle: Klucel (hydroxypropylcellulose) (HPC), higher = longer survival): 89 % of control

CS(=O)(=O)OCC(O)C(O)C(O)C(O)COS(C)(=O)=O (configuration not stated)
T/C (endpoint: mean tumor weight, dose: 50.0 mg/kg/injection, schedule: Q01DX011 (ip), vehicle: saline, higher = larger tumour): 86 % of control and 97 % of control | T/C (endpoint: mean tumor weight, dose: 200.0 mg/kg/injection, schedule: Q01DX011 (ip), vehicle: saline, higher = larger tumour): 54 % of control and 60 % of control | T/C (endpoint: mean tumor weight, dose: 400.0 mg/kg/injection, schedule: Q01DX011 (ip), vehicle: saline, higher = larger tumour): 58 % of control

O=[N+]([O-])c1ccc([I+]c2ccccc2)cc1
T/C (endpoint: median survival time, dose: 12.5 mg/kg/injection, schedule: Q01DX009 (ip), vehicle: Klucel (hydroxypropylcellulose) (HPC), higher = longer survival): 91 % of control | T/C (endpoint: median survival time, dose: 25.0 mg/kg/injection, schedule: Q01DX009 (ip), vehicle: Klucel (hydroxypropylcellulose) (HPC), higher = longer survival): 95 % of control

CC(C)(C)c1ccc(CN2CCN(C(c3ccccc3)c3ccc(Cl)cc3)CC2)cc1 (configuration not stated)
T/C (endpoint: median survival time, dose: 0.5 mg/kg/injection, schedule: Q01DX009 (ip), vehicle: saline with Tween-80, higher = longer survival): 112 % of control | T/C (endpoint: median survival time, dose: 2.0 mg/kg/injection, schedule: Q01DX009 (ip), vehicle: saline with Tween-80, higher = longer survival): 112 % of control and 155 % of control and 233 % of control

COC(=O)C1CCC(NC(=O)N(CCCl)N=O)CC1 (configuration not stated)
T/C (endpoint: median survival time, dose: 14.0 mg/kg/injection, schedule: Q01DX001 (ip), vehicle: saline with Tween-80, higher = longer survival): 206 % of control | T/C (endpoint: median survival time, dose: 21.0 mg/kg/injection, schedule: Q01DX001 (ip), vehicle: saline with Tween-80, higher = longer survival): 223 % of control | T/C (endpoint: median survival time, dose: 23.0 mg/kg/injection, schedule: Q01DX001 (ip), vehicle: saline with Tween-80, higher = longer survival): 180 % of control | T/C (endpoint: median survival time, dose: 24.0 mg/kg/injection, schedule: Q01DX001 (ip), vehicle: saline with Tween-80, higher = longer survival): 152 % of control | T/C (endpoint: median survival time, dose: 32.0 mg/kg/injection, schedule: Q01DX001 (ip), vehicle: saline with Tween-80, higher = longer survival): 188 % of control | T/C (endpoint: median survival time, dose: 36.0 mg/kg/injection, schedule: Q01DX001 (ip), vehicle: saline with Tween-80, higher = longer survival): 219 % of control | T/C (endpoint: median survival time, dose: 54.0 mg/kg/injection, schedule: Q01DX001 (ip), vehicle: saline with Tween-80, higher = longer survival): 198 % of control | T/C (endpoint: median survival time, dose: 81.0 mg/kg/injection, schedule: Q01DX001 (ip), vehicle: saline with Tween-80, higher = longer survival): 94 % of control

C[C@@H]1CC[C@@]2(NC1)O[C@H]1C[C@H]3[C@@H]4CC=C5C[C@@H](O)CC[C@]5(C)[C@H]4CC[C@]3(C)[C@H]1[C@@H]2C
T/C (endpoint: mean tumor weight, dose: 12.0 mg/kg/injection, schedule: Q01DX011 (sc), vehicle: steriod suspending solution, higher = larger tumour): 73 % of control | T/C (endpoint: mean tumor weight, dose: 16.6 mg/kg/injection, schedule: Q01DX011 (ip), vehicle: carboxymethylcellulose (CMC), higher = larger tumour): 56 % of control and 59 % of control and 70 % of control | T/C (endpoint: mean tumor weight, dose: 18.0 mg/kg/injection, schedule: Q01DX011 (sc), vehicle: steriod suspending solution, higher = larger tumour): 75 % of control | T/C (endpoint: mean tumor weight, dose: 40.0 mg/kg/injection, schedule: Q01DX011 (sc), vehicle: steriod suspending solution, higher = larger tumour): 94 % of control | T/C (endpoint: mean tumor weight, dose: 50.0 mg/kg/injection, schedule: Q01DX011 (ip), vehicle: carboxymethylcellulose (CMC), higher = larger tumour): 97 % of control | T/C (endpoint: mean tumor weight, dose: 54.0 mg/kg/injection, schedule: Q01DX011 (sc), vehicle: steriod suspending solution, higher = larger tumour): 92 % of control | T/C (endpoint: mean tumor weight, dose: 80.0 mg/kg/injection, schedule: Q01DX011 (sc), vehicle: steriod suspending solution, higher = larger tumour): 119 % of control | T/C (endpoint: mean tumor weight, dose: 100.0 mg/kg/injection, schedule: Q01DX011 (sc), vehicle: steriod suspending solution, higher = larger tumour): 83 % of control | T/C (endpoint: mean tumor weight, dose: 200.0 mg/kg/injection, schedule: Q01DX011 (sc), vehicle: steriod suspending solution, higher = larger tumour): 58 % of control | T/C (endpoint: mean tumor weight, dose: 400.0 mg/kg/injection, schedule: Q01DX011 (sc), vehicle: steriod suspending solution, higher = larger tumour): 104 % of control

CS(=O)(=O)OC[C@@H](O)[C@@H](O)COS(C)(=O)=O
T/C (endpoint: mean tumor weight, dose: 62.5 mg/kg/injection, schedule: Q01DX011 (ip), vehicle: saline, higher = larger tumour): 71 % of control | T/C (endpoint: mean tumor weight, dose: 250.0 mg/kg/injection, schedule: Q01DX011 (ip), vehicle: saline, higher = larger tumour): 115 % of control | T/C (endpoint: mean tumor weight, dose: 500.0 mg/kg/injection, schedule: Q01DX011 (ip), vehicle: saline, higher = larger tumour): 94 % of control | T/C (endpoint: mean tumor weight, dose: 750.0 mg/kg/injection, schedule: Q01DX011 (ip), vehicle: other, higher = larger tumour): 100 % of control | T/C (endpoint: mean tumor weight, dose: 1000.0 mg/kg/injection, schedule: Q01DX011 (ip), vehicle: other, higher = larger tumour): 98 % of control

NC(=S)N/N=C\c1ncnc2ccccc12
T/C (endpoint: median survival time, dose: 1.6 mg/kg/injection, schedule: Q01DX009 (ip), vehicle: Klucel (hydroxypropylcellulose) (HPC), higher = longer survival): 104 % of control | T/C (endpoint: median survival time, dose: 3.12 mg/kg/injection, schedule: Q01DX009 (ip), vehicle: Klucel (hydroxypropylcellulose) (HPC), higher = longer survival): 103 % of control | T/C (endpoint: median survival time, dose: 6.25 mg/kg/injection, schedule: Q01DX009 (ip), vehicle: Klucel (hydroxypropylcellulose) (HPC), higher = longer survival): 96 % of control and 108 % of control
